US11793849B2, “Method of Chinese herbal medicine extract used for treating multiple diseases caused by drug resistant bacteria infection” (priority 2016, dated 2023)

System: ATCC27853
Experiment: MIC determination, control strain
Assay type: cell-based

Measured: MIC

Procedure: Determination methods of a Minimal Inhibitory Concentration (MIC) and a Minimum Bactericidal Concentration (MBC) of a test product: the MIC and the MBC of the Pithecellobium clypearia Benth water or ethanol extract to the MDRAB are determined by a microdilution broth method.

Polymycin B [POLB]
1 µg/mL: EA=10% ethanol extract | EA=60% ethanol extract | EA=95% ethanol extract | EA=water extract
